Target: T1, N-terminally GST-tagged DLK (catalytic domain amino acid 1-520) (Homo sapiens, UniProt Q12852)
T1 construct: N-terminally GST-tagged DLK (catalytic domain amino acid 1-520); purchased Carna Bioscience
T1 sequence (Q12852 1-520): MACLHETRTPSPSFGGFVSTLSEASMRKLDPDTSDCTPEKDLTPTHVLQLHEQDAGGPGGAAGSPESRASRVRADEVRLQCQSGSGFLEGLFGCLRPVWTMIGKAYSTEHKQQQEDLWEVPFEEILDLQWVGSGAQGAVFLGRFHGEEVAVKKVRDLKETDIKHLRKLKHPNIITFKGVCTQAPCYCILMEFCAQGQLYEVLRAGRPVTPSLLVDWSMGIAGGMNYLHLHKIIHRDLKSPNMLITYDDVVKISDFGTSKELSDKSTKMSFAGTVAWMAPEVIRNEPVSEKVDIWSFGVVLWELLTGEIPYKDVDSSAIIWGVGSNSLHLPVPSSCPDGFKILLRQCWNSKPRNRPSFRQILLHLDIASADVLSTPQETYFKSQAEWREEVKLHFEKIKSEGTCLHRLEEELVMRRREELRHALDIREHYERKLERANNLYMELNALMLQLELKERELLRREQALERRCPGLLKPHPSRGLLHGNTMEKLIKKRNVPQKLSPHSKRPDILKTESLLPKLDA
Experiment: DLK TR-FRET inhibition assay
Type: biochemical
Conditions: 5 nM GST-DLK, 40 nM HIS-MKK4 K131M substrate, 30 μM ATP, 60 minutes at ambient temperature
Procedure, shortened: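 5 nM GST-DLK (aa 1-520), 40 nM HIS-MKK4 K131M and 30 μM ATP reacted 60 min at ambient temperature in HEPES pH 7.5 buffer with 10 mM MgCl2, compound 1:3 serially diluted from 20 uM. TR-FRET detection of phospho-MKK4 used Eu-cryptate anti-phospho-MKK4 plus D2 anti-HIS, read after 3 h (665/615 nm).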

Structure (SMILES) | Ki
COCCN1CC2(C[C@@H]3[C@H](C2)[C@H]3c2cc(-c3cnc(N)c(C(F)(F)F)c3)nn2C(C)C)C1 [compound 141, 5-(1-isopropyl-5-((1′R,5′S,6′r)-1-(2-methoxyethyl)spiro[azetidine-3,3′-bicyclo[3.1.0]hexan]-6′-yl)-1H-pyrazol-3-yl)-3-(trifluoromethyl)pyridin-2-amine] | 8.52 nM
Nc1ncc(-c2cc([C@H]3[C@@H]4C[C@H](N5CCOCC5)C[C@@H]43)n(C3CCC3)n2)cc1OC(F)F [compound 134, 5-(1-cyclobutyl-5-((1R,3r,5S,6r)-3-morpholinobicyclo[3.1.0]hexan-6-yl)-1H-pyrazol-3-yl)-3-(difluoromethoxy)pyridin-2-amine] | 1.58 nM
CC(C)n1nc(-c2cnc(N)c(OCC(F)(F)F)c2)cc1[C@H]1[C@@H]2C[C@@H](N3CCOCC3)C[C@@H]21 [compound 96, 5-(1-isopropyl-5-((1R,3s,5S,6r)-3-morpholinobicyclo[3.1.0]hexan-6-yl)-1H-pyrazol-3-yl)-3-(2,2,2-trifluoroethoxy)pyridin-2-amine] | 19 nM
CC(C)n1nc(-c2cnc(N)c(OC(F)F)c2)cc1[C@H]1[C@@H]2C[C@H](N3CCO[C@H](C)C3)C[C@@H]21 [compound 77, 3-(difluoromethoxy)-5-(1-isopropyl-5-((1R,3r,5S,6R)-3-((R)-2-methylmorpholino)bicyclo[3.1.0]hexan-6-yl)-1H-pyrazol-3-yl) pyridin-2-amine] | 1.3 nM
CC(C)n1nc(-c2cnc(N)c(C(F)(F)F)c2)cc1[C@H]1[C@@H]2C[C@H](N3CCOC[C@H]3C)C[C@@H]21 [compound 45, 5-(1-isopropyl-5-((1R,3r,5S,6R)-3-((R)-3-methylmorpholino)bicyclo[3.1.0]hexan-6-yl)-1H-pyrazol-3-yl)-3-(trifluoromethyl) pyridin-2-amine] | 3.3 nM
CC(C)n1nc(-c2cnc(N)c(OC(F)F)c2)cc1[C@H]1[C@@H]2C[C@H](O)C[C@@H]21 [compound 4, (1R,3r,5S,6r)-6-(3-(6-amino-5-(difluoromethoxy)pyridin-3-yl)-1-isopropyl-1H-pyrazol-5-yl) bicyclo[3.1.0]hexan-3-ol] | 4.51 nM
CC(C)n1nc(-c2cnc(N)c(OC(F)F)c2)cc1[C@H]1[C@@H]2C[C@H](N3CCOCC(F)(F)C3)C[C@@H]21 [compound 181, 5-(5-((1R,3r,5S,6r)-3-(6,6-difluoro-1,4-oxazepan-4-yl)bicyclo [3.1.0]hexan-6-yl)-1-isopropyl-1H-pyrazol-3-yl)-3-(difluoromethoxy) pyridin-2-amine] | 2.4 nM
CC(C)n1nc(-c2cnc3ccn([C@H](C)c4ccccn4)c3c2)cc1[C@H]1[C@@H]2C[C@H](N3CCOCC3)C[C@@H]21 [compound 26, 4-((1R,3R,5S,6r)-6-(1-isopropyl-3-(1-((R)-1-(pyridin-2-yl)ethyl)-1H-pyrrolo[3,2-b]pyridin-6-yl)-1H-pyrazol-5-yl)bicyclo[3.1.0]hexan-3-yl)morpholine] | 75.6 nM
CC(C)n1nc(-c2cnc(N)c(OC(F)F)c2)cc1[C@H]1[C@@H]2CC(N3CCOCC(F)C3)C[C@@H]21 (single isomer, unassigned) [compound 169] | 4.1 nM
CC(C)n1nc(-c2cnc(N)c(C(F)(F)F)c2)cc1[C@H]1[C@@H]2C[C@@]3(CCN3C3COC3)C[C@@H]21 [compound 151, 5-(1-isopropyl-5-((1′R,2r,5′S,6′r)-1-(oxetan-3-yl)spiro[azetidine-2,3′-bicyclo[3.1.0]hexan]-6′-yl)-1H-pyrazol-3-yl)-3-(trifluoromethyl) pyridin-2-amine] | 9 nM
COC1CCN([C@@H]2C[C@@H]3[C@H](C2)[C@H]3c2cc(-c3cnc(N)c(C(F)(F)F)c3)nn2C(C)C)CC1 [compound 249, 5-(1-isopropyl-5-((1R,3s,5S,6r)-3-(4-methoxypiperidin-1-yl)bicyclo[3.1.0]hexan-6-yl)-1H-pyrazol-3-yl)-3-(trifluoromethyl) pyridin-2-amine] | 2.6 nM
COCCN(C)[C@H]1C[C@@H]2[C@H](C1)[C@H]2c1cc(-c2cnc(N)c(C(F)(F)F)c2)nn1C(C)C [compound 284, 5-(1-isopropyl-5-((1R,3r,5S,6r)-3-((2-methoxyethyl)(methyl)amino)bicyclo[3.l.0]hexan-6-yl)-1H-pyrazol-3-yl)-3-(trifluoromethyl) pyridin-2-amine] | 5.7 nM
Nc1ncc(-c2cc([C@H]3[C@@H]4C[C@@H](N5CCOCC5)C[C@@H]43)n(C3CCCC3)n2)cc1OC(F)F [compound 130, 5-(1-cyclopentyl-5-((1R,3s,5S,6r)-3-morpholinobicyclo[3.1.0]hexan-6-yl)-1H-pyrazol-3-yl)-3-(difluoromethoxy)pyridin-2-amine] | 4.82 nM
CC(C)n1nc(-c2cnc(N)c(C(F)(F)F)c2)cc1[C@H]1[C@@H]2C[C@H](N3CCN(C)CC3)C[C@@H]21 [compound 63, 5-(1-isopropyl-5-((1R,3r,5S,6r)-3-(4-methylpiperazin-1-yl)bicyclo [3.1.0]hexan-6-yl)-1H-pyrazol-3-yl)-3-(trifluoromethyl)pyridin-2-amine] | 2.21 nM
CC(C)n1nc(-c2cnc(N)c(OC(F)(F)F)c2)cc1[C@H]1[C@@H]2C[C@@H](N3CCNCC3)C[C@@H]21 [compound 245, 5-(1-isopropyl-5-((1R,3s,5S,6r)-3-(piperazin-1-yl)bicyclo[3.1.0]hexan-6-yl)-1H-pyrazol-3-yl)-3-(trifluoromethoxy)pyridin-2-amine] | 2.6 nM
CC(C)n1nc(-c2cnc(N)c(C(F)(F)F)c2)cc1[C@@H]1[C@H]2CC[C@@H](N3CCOCC3)[C@H]21 (single isomer, unassigned) [compound 138, 5-(1-isopropyl-5-(2-morpholinobicyclo[3.1.0]hexan-6-yl)-1H-pyrazol-3-yl)-3-(trifluoromethyl) pyridin-2-amine] | 12.9 nM
COCCN1CC[C@@]12C[C@@H]1[C@H](C2)[C@H]1c1cc(-c2cnc(N)c(OC(F)(F)F)c2)nn1C(C)C [compound 146, 5-(1-isopropyl-5-((1′R,2r,5′S,6′r)-1-(2-methoxyethyl)spiro[azetidine-2,3′-bicyclo[3.1.0]hexan]-6-yl)-1H-pyrazol-3-yl)-3-(trifluoro-methoxy)pyridin-2-amine] | 4.3 nM
CC(C)n1nc(-c2cnc(N)c(OC(F)F)c2)cc1[C@H]1[C@@H]2C[C@@H](N3C[C@@H]4C[C@H]3CN4C)C[C@@H]21 [compound 206, 3-(difluoromethoxy)-5-(1-isopropyl-5-((1R,3s,5S,6S)-3-((1S,4S)-5-methyl-2,5-diazabicyclo [2.2.1]heptan-2-yl)bicyclo[3.1.0]hexan-6-yl)-1H-pyrazol-3-yl) pyridin-2-amine] | 2.1 nM
CC(C)n1nc(-c2cnc(N)c(OC(F)F)c2)cc1[C@H]1[C@@H]2C[C@@H](N3CCN(C)CC3)C[C@@H]21 [compound 199, 3-(difluoromethoxy)-5-(1-isopropyl-5-((1R,3s,5S,6r)-3-(4-methyl-piperazin-1-yl)bicyclo[3.1.0]hexan-6-yl)-1H-pyrazol-3-yl) pyridin-2-amine] | 1.8 nM
CC(C)n1nc(-c2cnc(N)c(OC(F)F)c2)cc1[C@H]1[C@@H]2CC3(CCO3)C[C@@H]21 (stereo partly drawn) [compound 92, 3-(difluoromethoxy)-5-(1-isopropyl-5-((1 R,5S,6r)-spiro[bicyclo [3.1.0]hexane-3,2′-oxetan]-6-yl)-1H-pyrazol-3-yl)pyridin-2-amine] | 9.4 nM
CC(C)n1nc(-c2cnc(N)c(OC(F)(F)F)c2)cc1[C@H]1[C@@H]2C[C@@H](N3C[C@@H]4C[C@H]3CN4C)C[C@@H]21 [compound 209, 5-(1-isopropyl-5-((1R,3s,5S,6S)-3-((1S,4S)-5-methyl-2,5-diazabicyclo [2.2.1]heptan-2-yl)bicyclo [3.1.0]hexan-6-yl)-1H-pyrazol-3-yl)-3-(trifluoromethoxy) pyridin-2-amine] | 2.6 nM
CC(C)n1nc(-c2cnc(N)c(C(F)(F)F)c2)cc1[C@H]1[C@@H]2C[C@H](N3CCO[C@@H](C)C3)C[C@@H]21 [compound 108, 5-(1-isopropyl-5-((1R,3r,5S,6S)-3-((S)-2-methylmorpholino)bicyclo[3.1.0]hexan-6-yl)-1H-pyrazol-3-yl)-3-(trifluoromethyl) pyridin-2-amine] | 1.6 nM
COCC1(F)C[C@@H]2[C@H](C1)[C@H]2c1cc(-c2cnc(N)c(C(F)(F)F)c2)nn1C(C)C (stereo partly drawn) [compound 166, 5-(5-((1R,5S,6r)-3-fluoro-3-(methoxymethyl)bicyclo[3.1.0]hexan-6-yl)-1-isopropyl-1H-pyrazol-3-yl)-3-(trifluoromethyl)pyridin-2-amine] | 6.7 nM
CC(C)n1nc(-c2cnc(N)c(OC(F)(F)F)c2)cc1[C@H]1[C@@H]2C[C@H](N3CCN(C)CC3)C[C@@H]21 [compound 64, 5-(1-isopropyl-5-((1R,3r,5S,6r)-3-(4-methylpiperazin-1-yl)bicyclo [3.1.0]hexan-6-yl)-1H-pyrazol-3-yl)-3-(trifluoromethoxy) pyridin-2-amine] | 0.763 nM

Reference: patent US9365583B2, “Substituted pyrazoles and uses thereof” (Genentech, Inc., priority 2013, dated 2016)
